# Test results taken from patent publication US10473645B2, “Methods for identifying a receptor for a ligand and uses thereof” (UNIVERSITE DE GENEVE, priority 2014, dated 2019).
# What was measured:
# TAAR3 [1] = target: T1, TAAR3 (Mus musculus, UniProt Q5QD16); assay: TAAR transcript level by RT-qPCR after in vivo exposure; conditions: olfactory stimulation during 48 hours
# Experimental: (§1) In vivo exposure to odorant: Starting 48 h before experiments, mice were habituated to pure DMSO on a cotton ball. 200 μl were pipetted directly onto the cotton and placed in the cage, replacing any cotton that was already in the cage for nest-making purposes.
# (§2) On the day of the experiment, mice receiving odorants were transferred to a different room, where they were exposed to a cotton ball on which 200 μl of odorant diluted in pure DMSO were deposited. Exposures started in the morning between 8 and 10 am (that is two hours after lights were on) and mice were killed and dissected between 1 and 3 pm. […] If a number of different odorants were tested in the same experiment, a different overpressurized room would always be used for each odorant to avoid odor cross-contamination.
# (§3) After odorant exposure, mice were killed by cervical dislocation and immediately decapitated. The main olfactory epithelia (MOE), were harvested in their entirety and transferred to a tube containing 600 μl of lysis buffer and β-mercaptoethanol (RNAeasy kit, Qiagen, following the manufacturer protocol) and a 0.5 cm diameter steel ball, and then put on ice. Samples were then homogenized using a FastPrep®-24 instrument (MP Biomedicals) at 6 m/s for 30 s and left on ice. […]
# (§4) RNA concentrations were determined using an Amersham Ultrospec® 3100 Pro spectrophotometer, and RNA quality was evaluated with an Agilent Technologies 2100 Bioanalyzer®. […]
# (§5) qPCR Ct values were analyzed using an in-house developed Microsoft Excel® macro file. […] Ct values were converted to quantities relative to the maximum for each given gene. Selected reference genes were then analyzed for variance using the geNorm algorithm. […]
# (§6) Transcript levels of olfactory receptor gene were evaluated following olfactory stimulation during 48 hours by beta-phenylethylamine. Olfactory receptor gene transcript levels were evaluated by RT-qPCR for each receptor gene, and the ratios between the values obtained in exposed versus control mice are shown in FIG. 6. […]
# TAAR4 [2] = target: T2, TAAR4 (Mus musculus, UniProt Q5QD15); assay: as above; conditions: olfactory stimulation during 48 hours
# T2 construct: from tissue; host or cells: main olfactory epithelium of living mice
# T2 sequence (Q5QD15 whole entry): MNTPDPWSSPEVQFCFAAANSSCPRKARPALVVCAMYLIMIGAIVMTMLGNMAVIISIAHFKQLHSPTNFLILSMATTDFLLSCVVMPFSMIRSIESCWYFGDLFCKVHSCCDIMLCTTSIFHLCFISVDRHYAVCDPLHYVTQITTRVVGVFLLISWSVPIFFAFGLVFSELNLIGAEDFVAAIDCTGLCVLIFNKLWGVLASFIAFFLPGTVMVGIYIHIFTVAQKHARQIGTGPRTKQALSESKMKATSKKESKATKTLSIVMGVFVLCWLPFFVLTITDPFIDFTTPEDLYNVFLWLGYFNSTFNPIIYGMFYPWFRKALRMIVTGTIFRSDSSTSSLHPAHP
# Experimental: as §1, §2, §3, §4, §5, §6
# TAAR6 = target: T3, TAAR6 (Mus musculus, UniProt Q5QD13); assay: as above; conditions: olfactory stimulation during 48 hours
# T3 construct: from tissue; host or cells: main olfactory epithelium of living mice
# T3 sequence (Q5QD13 whole entry): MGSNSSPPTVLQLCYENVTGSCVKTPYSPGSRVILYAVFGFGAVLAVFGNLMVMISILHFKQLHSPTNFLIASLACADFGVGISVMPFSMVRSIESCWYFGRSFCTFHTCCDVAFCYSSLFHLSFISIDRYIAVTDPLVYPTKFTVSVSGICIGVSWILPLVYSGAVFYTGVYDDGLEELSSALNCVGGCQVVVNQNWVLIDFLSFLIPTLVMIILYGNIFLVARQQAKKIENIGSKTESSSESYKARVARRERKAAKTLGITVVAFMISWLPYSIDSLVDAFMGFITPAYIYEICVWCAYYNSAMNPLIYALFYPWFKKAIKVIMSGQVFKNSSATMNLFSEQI
# Experimental: as §1, §2, §3, §4, §5, §6
# TAAR3 [3] = target: T1, TAAR3; conditions: Zhang et al, 2013; cited from earlier work
# TAAR4 [4] = target: T2, TAAR4; conditions: Zhang et al, 2013; cited from earlier work
# Olfr556 = target: T4, Olfr556 (Mus musculus, UniProt B2RRG2); assay: OR transcript level by RT-qPCR after in vivo odorant exposure; set-up: from tissue; host or cells: main olfactory epithelium of exposed mice; conditions: olfactory stimulation during 48 hours, RT-qPCR
# T4 sequence (B2RRG2 1-324): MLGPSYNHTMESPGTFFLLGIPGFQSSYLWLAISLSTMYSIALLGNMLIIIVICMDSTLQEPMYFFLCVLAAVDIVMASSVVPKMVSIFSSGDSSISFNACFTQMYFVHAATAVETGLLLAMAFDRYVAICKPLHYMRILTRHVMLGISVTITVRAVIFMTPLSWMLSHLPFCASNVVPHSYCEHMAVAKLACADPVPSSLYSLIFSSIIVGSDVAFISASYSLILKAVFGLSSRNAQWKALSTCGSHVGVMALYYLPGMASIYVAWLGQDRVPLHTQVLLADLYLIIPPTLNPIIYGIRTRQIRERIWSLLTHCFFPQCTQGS
# Experimental: as §1
# On the day of the experiment, mice receiving odorants were transferred to a different room, where they were exposed to a cotton ball on which 200 μl of odorant diluted in pure DMSO were deposited. […] […] If a number of different odorants were tested in the same experiment, a different overpressurized room would always be used for each odorant to avoid odor cross-contamination.
# After odorant exposure, mice were killed by cervical dislocation and immediately decapitated. The main olfactory epithelia (MOE), were harvested in their entirety and transferred to a tube containing 600 μl of lysis buffer and β-mercaptoethanol (RNAeasy kit, Qiagen, following the manufacturer protocol) and a 0.5 cm diameter steel ball, and then put on ice. Samples were then homogenized using a FastPrep®-24 instrument (MP Biomedicals) at 6 m/s for 30 s and left on ice. RNA extraction was performed on all samples in parallel using the Qiagen RNeasy Mini® kit following the manufacturer's instructions. Two DNase treatments were performed on all samples: first using the Qiagen RNase-Free DNase Set® and then using the Life Technologies Ambion DNase I® kit. RNA samples were then aliquoted and stored at −80° C.
# RNA concentrations were determined using an Amersham Ultrospec® 3100 Pro spectrophotometer, and RNA quality was evaluated with an Agilent Technologies 2100 Bioanalyzer®. Each reverse transcription was performed with 0.5 μg RNA using the Takara Primescript® kit, in a final volume of 10 μl. Primers for reverse transcription were equal mixtures of poly-T nucleotides and random hexamers. Negative controls (omitting the reverse transcriptase enzyme) were performed for each sample. 1/14th of the cDNA preparation was used for each triplicated qPCR reaction.
# qPCR Ct values were analyzed using an in-house developed Microsoft Excel® macro file. Triplicate values were compared and outliers (values with a difference higher than 0.5 Ct to their nearest neighbor) were discarded. The number of conditions with an outlying value was always less than 10% of the total number of conditions. Ct values were converted to quantities relative to the maximum for each given gene. Selected reference genes were then analyzed for variance using the geNorm algorithm. All values were normalized with the olfactory tissue-specific genes Omp and Adcy3. β-Actin was used as a non-tissue-specific reference gene to control for differences in dissection between samples. […]
# Olfr171 [5] = assay: as above; set-up: species or system mouse; conditions: 5% odorant for 5 hours, sensory neuroepithelium, n=7 mice
# Experimental: as §1
# (§7) On the day of the experiment, mice receiving odorants were transferred to a different room, where they were exposed to a cotton ball on which 200 μl of odorant diluted in pure DMSO were deposited. Exposures started in the morning between 8 and 10 am (that is two hours after lights were on) and mice were killed and dissected between 1 and 3 pm. […]
# as §4, §5
# (§8) Adult C57BL/6 mice were exposed to 5% ethyl isobutyrate for 5 hours, and the level of transcripts of odorant receptors' genes were measured by RT-qPCR on extracts of olfactory epithelia from these mice, as described in the materials and methods section.
# [6] = test system: control odorant receptor genes (8 genes); assay: as above; set-up: species or system mouse; conditions: 5% odorant for 5 hours; margin of ±20% relative to control mice not significant
# Experimental: as §1, §7, §4, §5, §8
# Olfr167 [7] = target: T5, Olfr167 (Mus musculus, UniProt Q8VGJ5); assay: as above; conditions: 5% odorant for 5 hours, sensory neuroepithelium, n=7 mice
# T5 construct: from tissue; host or cells: main olfactory epithelium of C57BL/6 mice (in vivo exposure) or explanted mouse olfactory epithelia (ex vivo)
# T5 sequence (Q8VGJ5 1-312): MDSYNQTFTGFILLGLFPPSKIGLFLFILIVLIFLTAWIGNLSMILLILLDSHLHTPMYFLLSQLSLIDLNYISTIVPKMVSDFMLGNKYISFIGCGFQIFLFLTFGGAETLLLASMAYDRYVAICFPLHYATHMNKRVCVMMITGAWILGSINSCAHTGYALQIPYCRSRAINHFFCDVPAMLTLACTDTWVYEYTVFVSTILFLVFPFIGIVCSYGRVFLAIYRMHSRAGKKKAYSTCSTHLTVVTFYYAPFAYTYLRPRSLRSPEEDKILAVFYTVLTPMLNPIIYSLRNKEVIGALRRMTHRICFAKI
# Experimental: as §1, §7, §4, §5, §8
# [8] = test system: Olfr171-expressing neurons; assay: pS6 immunolabeling with OR in situ hybridization after odorant exposure; set-up: species or system mouse; conditions: 5% odorant, 60 minutes, in vivo
# Experimental: (§9) In order to independently validate the identity of an acetophenone receptor obtained with the RNAseq approach, the potential colocalization following acetophenone exposure of a neuronal activity marker (the phosphorylated ribosomal protein S6 (pS6) (Knight et al., 2012, Cell, 151, 1126-1137) and specific olfactory receptors were evaluated. To this aim, in-situ hybridizations were performed on sections of olfactory tissue with probes targeting receptor mRNAs followed by immunolabeling of pS6. The probes used were directed against the transcripts of most of the ORs determined as responsive including Olfr983 transcripts (encoding a known acetophenone receptor), Olfr171 transcripts (encoding a known ethyl isobutyrate receptor), and Olfr145 transcripts, encoding a newly identified receptor by RNAseq. Before analysis, mice were exposed to either 5% acetophenone, 5% ethyl isobutyrate, or a negative control condition for 60 minutes. […] 66% (Olfr983) and 70% (Olfr145) of the neurons were positive for pS6 after acetophenone exposure, while only 11% of the neurons expressing Olfr171 were positive for pS6 after exposure to this compound.
# [9] = test system: neurons expressing Olfr145; assay: as above; format: in vivo, mouse; conditions: 5% odorant, 60 minutes, in vivo
# Experimental: as §9
# [10] = test system: neurons expressing Olfr983; assay: as above; format: in vivo, mouse; conditions: 5% odorant, 60 minutes, in vivo
# Experimental: as §9
# Olfr167 [11] = target: T5, Olfr167; assay: OR transcripts by qPCR after ex vivo exposure of olfactory epithelia; format: cell-based; conditions: 50 μM, 2 hours, olfactory epithelia in vitro in ACSF medium
# Experimental: (§10) In vitro exposure to odorant: The olfactory sensory mucosa of a live or recently dead vertebrate is collected and maintained alive in vitro. Sensory neurons are either left untouched or are dissociated. The exposure to the odorants is then performed in vitro, in a tube, in the liquid phase. The explants/neurons are kept alive in a physiological medium (such as 145 mM NaCl, 5 mM KCl, 1 mM CaCl2, 1 mM MgCl2, 10 mM HEPES, 10 mM glucose). […] The potential modulations of mRNA levels between the two populations are then evaluated, by qPCR (FIG. 2), RNAseq or other techniques, to identify the receptors that have been activated.
# (§11) Mouse olfactory epithelia were collected and kept in vitro in ACSF medium where they were exposed for 2 hours to 50 μM ethyl isobutyrate. The number of transcripts for Olfr genes was then evaluated by qPCR, and those of Olfr167 and Olfr171 were both repressed after agonist exposure. Ethyl isobutyrate was previously shown to be an agonist for Olfr167 and Olfr171.
# Olfr171 [12] = assay: as above; format: cell-based, Mouse; conditions: 50 μM, 2 hours, olfactory epithelia in vitro in ACSF medium
# Experimental: as §10, §11
# Olfr167 [13] = target: T5, Olfr167; conditions: cited from earlier work
# Olfr171 [14] = conditions: cited from earlier work
# Olfr2 [15] = target: T6, Olfr2 (Mus musculus, UniProt Q9QWU6); assay: OR transcript level by RT-qPCR after in vivo odorant exposure; conditions: 5% odorant, 5 hours
# T6 construct: host or cells: HEK cells
# T6 sequence (Q9QWU6 1-327): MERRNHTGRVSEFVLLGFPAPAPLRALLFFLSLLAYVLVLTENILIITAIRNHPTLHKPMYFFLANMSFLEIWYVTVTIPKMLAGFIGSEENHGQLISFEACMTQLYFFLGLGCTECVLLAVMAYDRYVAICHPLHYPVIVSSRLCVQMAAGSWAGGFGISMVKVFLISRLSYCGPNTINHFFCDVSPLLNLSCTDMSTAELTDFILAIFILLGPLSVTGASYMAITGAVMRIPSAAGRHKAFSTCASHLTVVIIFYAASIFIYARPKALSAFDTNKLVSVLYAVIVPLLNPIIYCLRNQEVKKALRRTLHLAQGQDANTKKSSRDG
# Experimental: as §1, §2
# (§12) After odorant exposure, mice were killed by cervical dislocation and immediately decapitated. […]
# as §4, §5
# Olfr2 [16] = target: T6, Olfr2; conditions: HEK cells; previously shown; read-out: EC50 as agonist of Olfr2; cited from earlier work
# Olfr16 [17] = target: T7, Olfr16 (Mus musculus, UniProt Q62007); set-up: host or cells: dissociated neurons; conditions: dissociated neurons; previously shown; read-out: EC50 as agonist of Olfr16; cited from earlier work
# T7 sequence (Q62007 whole entry): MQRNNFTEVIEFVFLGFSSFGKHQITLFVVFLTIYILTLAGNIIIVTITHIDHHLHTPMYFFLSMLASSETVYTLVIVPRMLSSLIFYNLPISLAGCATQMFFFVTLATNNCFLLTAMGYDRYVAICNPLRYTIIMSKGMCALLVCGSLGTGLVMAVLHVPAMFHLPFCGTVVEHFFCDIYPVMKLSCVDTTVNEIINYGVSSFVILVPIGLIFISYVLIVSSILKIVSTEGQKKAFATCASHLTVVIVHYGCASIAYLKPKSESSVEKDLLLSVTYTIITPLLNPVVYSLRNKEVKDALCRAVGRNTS
# Olfr16 [18] = target: T7, Olfr16; assay: OR transcript level by RT-qPCR after in vivo odorant exposure; set-up: from tissue; host or cells: main olfactory epithelium of exposed mice; conditions: 5% odorant, 5 hours
# Experimental: as §1, §2, §12, §4, §5
# Olfr609 [19] = assay: as above; set-up: species or system mouse; conditions: 5% odorant, 5 hours
# Experimental: as §1, §2, §12, §4, §5
# Olfr609 [20] = conditions: HEK cells; previously shown; read-out: EC50 as agonist of Olfr609; cited from earlier work
# T1 sequence (Q5QD16 whole entry): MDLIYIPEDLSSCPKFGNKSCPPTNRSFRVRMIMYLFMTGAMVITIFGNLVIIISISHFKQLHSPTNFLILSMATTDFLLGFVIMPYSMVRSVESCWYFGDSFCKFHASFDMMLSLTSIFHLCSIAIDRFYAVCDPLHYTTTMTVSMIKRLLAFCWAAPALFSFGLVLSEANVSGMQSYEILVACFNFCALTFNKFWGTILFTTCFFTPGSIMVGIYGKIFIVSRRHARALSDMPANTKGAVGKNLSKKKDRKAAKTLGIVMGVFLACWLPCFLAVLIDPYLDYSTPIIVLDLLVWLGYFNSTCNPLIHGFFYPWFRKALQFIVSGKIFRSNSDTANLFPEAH
compound,measurement,setting,value
NCCc1ccccc1 [beta-phenylethylamine],number of transcripts encoding TAAR3,TAAR3 [1],decrease
same,number of transcripts encoding TAAR4,TAAR4 [2],decrease
same,TAAR6 transcript level (negative control),TAAR6,not affected
same,TAAR3 response previously shown,TAAR3 [3],respond
same,TAAR4 response previously shown,TAAR4 [4],respond
same,Olfr556 transcript level (negative control),Olfr556,not affected
CCOC(=O)C(C)C [ethyl isobutyrate],"mRNA concentration of Olfr171, decreased, relative to unexposed controls",Olfr171 [5],74%
same,concentration of control odorant receptor gene transcripts,[6],none of the control odorant receptor genes (8 genes) was significantly affected
same,"mRNA concentration of Olfr167, decreased, relative to unexposed controls",Olfr167 [7],47%
same,fraction of Olfr171-expressing neurons positive for pS6,[8],67%
same,fraction of Olfr145-expressing neurons positive for pS6,[9],28%
same,fraction of Olfr983-expressing neurons positive for pS6,[10],12%
same,number of Olfr167 transcripts after agonist exposure,Olfr167 [11],repressed
same,number of Olfr171 transcripts after agonist exposure,Olfr171 [12],repressed
same,action on Olfr167 previously shown,Olfr167 [13],agonist
same,action on Olfr171 previously shown,Olfr171 [14],agonist
CCCCCCC=O [heptanal],Olfr2 mRNA level relative to unexposed controls,Olfr2 [15],decrease
same,EC50,Olfr2 [16],< 50 µM
CC(C)(O)CCCC1=CCC(C=O)CC1 (stereo not shown) [lyral],EC50,Olfr16 [17],< 50 µM
same,Olfr16 mRNA level relative to unexposed controls,Olfr16 [18],decrease
COc1cc(C(=O)O)ccc1O [vanillic acid],Olfr609 mRNA level relative to unexposed controls,Olfr609 [19],decrease
same,EC50,Olfr609 [20],< 50 µM
